Columns and labels:
Btk = target: T1, Btk (Homo sapiens, UniProt Q06187); experiment: Btk kinase assay (ADP-Glo); assay type: biochemical; conditions: ADP-Glo Btk kinase assay kit; ATP 1.2 μM; 60 minutes at room temperature
T1 construct: purchased Promega (Madison, Wis.)
In short: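 Luminescent ADP detection after a 60 min reaction at 22±1 °C containing Btk 2 ng/μl, 1.2 μM ATP, 0.3 μM poly GT peptide and 1.4 mM MnCl2. IC50 from log concentration versus percent inhibition relative to DMSO vehicle.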

TMD-8 cells = experiment: Cell proliferation assay (CellTiter-Glo), TMD-8 cells; assay type: cell-based; conditions: Homo sapiens, TMD8, 120 h, 5-day treatment, read-out: TMD8 cell growth (GI50 μM)
In short: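 TMD-8 cells seeded at 5,000–10,000/well, cultured overnight, then exposed to compound (vehicle 0.5% DMSO) for 5 days at 37 °C. Growth read by CellTiter-Glo luminescence; IC50 from log concentration versus % growth inhibition relative to vehicle.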

T1 sequence (Q06187 whole entry): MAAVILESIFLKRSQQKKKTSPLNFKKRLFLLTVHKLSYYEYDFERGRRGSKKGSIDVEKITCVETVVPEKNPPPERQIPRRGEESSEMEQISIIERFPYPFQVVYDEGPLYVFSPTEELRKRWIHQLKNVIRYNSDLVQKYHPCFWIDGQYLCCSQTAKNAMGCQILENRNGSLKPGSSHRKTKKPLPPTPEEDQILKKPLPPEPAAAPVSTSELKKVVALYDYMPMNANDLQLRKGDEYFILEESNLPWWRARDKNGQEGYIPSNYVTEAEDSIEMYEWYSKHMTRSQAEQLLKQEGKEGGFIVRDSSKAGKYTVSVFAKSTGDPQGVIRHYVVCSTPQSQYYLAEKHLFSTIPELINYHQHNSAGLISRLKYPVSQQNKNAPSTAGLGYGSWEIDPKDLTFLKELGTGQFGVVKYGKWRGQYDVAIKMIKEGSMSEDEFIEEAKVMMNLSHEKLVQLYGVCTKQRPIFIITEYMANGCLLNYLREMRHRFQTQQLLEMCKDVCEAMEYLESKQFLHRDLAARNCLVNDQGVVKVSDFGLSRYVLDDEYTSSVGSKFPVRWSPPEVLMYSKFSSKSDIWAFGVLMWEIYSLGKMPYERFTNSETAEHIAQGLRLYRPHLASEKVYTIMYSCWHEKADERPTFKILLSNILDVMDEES

Structure (SMILES)	IC50 (Btk) [nM]	GI50 (TMD-8 cells) [µM]
CN(C)C/C=C/C(=O)N1CC[C@@H](Nc2ncnc3[nH]c(C#Cc4ccccc4F)cc23)C1 [Example 52, (R,E)-4-(dimethylamino)-1-(3-((6-((2-fluorophenyl)ethynyl)-7H-pyrrolo[2,3-d]pyrimidin-4-yl)amino)pyrrolidin-1-yl)but-2-en-1-one]	6	0.187
C=CC(=O)N1CC[C@@H](Nc2ncnc3[nH]c(C#Cc4ccc(OC)cc4)cc23)C1 [Example 53, (R)-1-(3-((6-((4-methoxyphenyl)ethynyl)-7H-pyrrolo[2,3-d]pyrimidin-4-yl)amino)pyrrolidin-1-yl)prop-2-en-1-one]	23	0.006
CN(C)C/C=C/C(=O)N1CC[C@@H](Nc2ncnc3[nH]c(C#Cc4ccccc4)cc23)C1 [Example 54, (R,E)-4-(dimethylamino)-1-(3-((6-(phenylethynyl)-7H-pyrrolo[2,3-d]pyrimidin-4-yl)amino)pyrrolidin-1-yl)but-2-en-1-one]	3.5	0.121
C=CC(=O)N1CC[C@@H](Nc2ncnc3[nH]c(C#Cc4ccccc4Cl)cc23)C1 [Example 55, (R)-1-(3-((6-((2-chlorophenyl)ethynyl)-7H-pyrrolo[2,3-d]pyrimidin-4-yl)amino)pyrrolidin-1-yl)prop-2-en-1-one]	174	0.195
CN(C)C/C=C/C(=O)N1CC[C@@H](Nc2ncnc3[nH]c(C#Cc4ccccc4Cl)cc23)C1 [Example 56, (R,E)-1-(3-((6-((2-chlorophenyl)ethynyl)-7H-pyrrolo[2,3-d]pyrimidin-4-yl)amino)pyrrolidin-1-yl)-4-(dimethylamino)but-2-en-1-one]	323	1
C=CC(=O)N1CC[C@@H](Nc2ncnc3[nH]c(C#Cc4cccc(Cl)c4)cc23)C1 [Example 57, (R)-1-(3-((6-((3-chlorophenyl)ethynyl)-7H-pyrrolo[2,3-d]pyrimidin-4-yl)amino)pyrrolidin-1-yl)prop-2-en-1-one]	24	0.01
CN(C)C/C=C/C(=O)N1CC[C@@H](Nc2ncnc3[nH]c(C#Cc4cccc(Cl)c4)cc23)C1 [Example 58, (R,E)-1-(3-((6-((3-chlorophenyl)ethynyl)-7H-pyrrolo[2,3-d]pyrimidin-4-yl)amino)pyrrolidin-1-yl)-4-(dimethylamino)but-2-en-1-one]	0.4	0.171
C=CC(=O)N1CC[C@@H](Nc2ncnc3[nH]c(C#Cc4ccccc4OC)cc23)C1 [Example 59, (R)-1-(3-((6-((2-methoxyphenyl)ethynyl)-7H-pyrrolo[2,3-d]pyrimidin-4-yl)amino)pyrrolidin-1-yl)prop-2-en-1-one]	742	1.97
C=CC(=O)N1CC[C@@H](Nc2ncnc3[nH]c(C#Cc4cccc(OC)c4)cc23)C1 [Example 60, (R)-1-(3-((6-((3-methoxyphenyl)ethynyl)-7H-pyrrolo[2,3-d]pyrimidin-4-yl)amino)pyrrolidin-1-yl)prop-2-en-1-one]	11	0.005
C=CC(=O)N1CC[C@@H](Nc2ncnc3[nH]c(C#Cc4cccc(F)c4)cc23)C1 [Example 61, (R)-1-(3-((6-((3-fluorophenyl)ethynyl)-7H-pyrrolo[2,3-d]pyrimidin-4-yl)amino)pyrrolidin-1-yl)prop-2-en-1-one]	121	0.022
C=CC(=O)N1CC[C@@H](Nc2ncnc3[nH]c(C#Cc4ccc(F)cc4)cc23)C1 [Example 62, (R)-1-(3-((6-((4-fluorophenyl)ethynyl)-7H-pyrrolo[2,3-d]pyrimidin-4-yl)amino)pyrrolidin-1-yl)prop-2-en-1-one]	52	0.024
C=CC(=O)N1CC[C@@H](Nc2ncnc3[nH]c(C#Cc4ccc(Cl)cc4)cc23)C1 [Example 63, (R)-1-(3-((6-((4-chlorophenyl)ethynyl)-7H-pyrrolo[2,3-d]pyrimidin-4-yl)amino)pyrrolidin-1-yl)prop-2-en-1-one]	4.8	0.0027
C=CC(=O)N1CC[C@@H](Nc2ncnc3[nH]c(C#Cc4ccc(Cl)c(Cl)c4)cc23)C1 [Example 64, (R)-1-(3-((6-((3,4-dichlorophenyl)ethynyl)-7H-pyrrolo[2,3-d]pyrimidin-4-yl)amino)pyrrolidin-1-yl)prop-2-en-1-one]	0.2	0.005
C=CC(=O)N1CC[C@@H](Nc2ncnc3[nH]c(C#Cc4cccc(OC(F)(F)F)c4)cc23)C1 [Example 65, (R)-1-(3-((6-((3-trifluoromethoxyphenyl)ethynyl)-7H-pyrrolo[2,3-d]pyrimidin-4-yl)amino)pyrrolidin-1-yl)prop-2-en-1-one]	173	0.0027
C=CC(=O)N1CC[C@@H](Nc2ncnc3[nH]c(C#Cc4ccc(OC(F)(F)F)cc4)cc23)C1 [Example 66, (R)-1-(3-((6-((4-trifluoromethoxyphenyl)ethynyl)-7H-pyrrolo[2,3-d]pyrimidin-4-yl)amino)pyrrolidin-1-yl)prop-2-en-1-one]	215	0.0012
C=CC(=O)N1CC[C@@H](Nc2ncnc3[nH]c(C#Cc4ccc(C(F)(F)F)cc4)cc23)C1 [Example 67, (R)-1-(3-((6-((4-trifluoromethylphenyl)ethynyl)-7H-pyrrolo[2,3-d]pyrimidin-4-yl)amino)pyrrolidin-1-yl)prop-2-en-1-one]	272	0.004
C=CC(=O)N1CC[C@@H](Nc2ncnc3[nH]c(C#Cc4cccc(C(F)(F)F)c4)cc23)C1 [Example 68, (R)-1-(3-((6-((3-trifluoromethylphenyl)ethynyl)-7H-pyrrolo[2,3-d]pyrimidin-4-yl)amino)pyrrolidin-1-yl)prop-2-en-1-one]	187	0.003
C=CC(=O)N1CC[C@@H](Nc2ncnc3[nH]c(C#Cc4cccc(C)c4)cc23)C1 [Example 69, (R)-1-(3-((6-((3-methylphenyl)ethynyl)-7H-pyrrolo[2,3-d]pyrimidin-4-yl)amino)pyrrolidin-1-yl)prop-2-en-1-one]	182	0.007
C=CC(=O)N1CC[C@@H](Nc2ncnc3[nH]c(C#Cc4ccc(Cl)c(F)c4)cc23)C1 [Example 70, (R)-1-(3-((6-((3-fluoro-4-chlorophenyl)ethynyl)-7H-pyrrolo[2,3-d]pyrimidin-4-yl)amino)pyrrolidin-1-yl)prop-2-en-1-one]	7.2	0.0013
C=CC(=O)N1CC[C@@H](Nc2ncnc3[nH]c(C#Cc4ccc5ccccc5c4)cc23)C1 [Example 71, (R)-1-(3-((6-(naphthalen-2-ylethynyl)-7H-pyrrolo[2,3-d]pyrimidin-4-yl)amino)pyrrolidin-1-yl)prop-2-en-1-one]	10	0.001
C=CC(=O)N1CC[C@@H](Nc2ncnc3[nH]c(C#Cc4ccc5c(c4)OCO5)cc23)C1 [Example 72, (R)-1-(3-((6-(benzo[d][1,3]dioxol-5-ylethynyl)-7H-pyrrolo[2,3-d]pyrimidin-4-yl)amino)pyrrolidin-1-yl)prop-2-en-1-one]	3.5	0.0007
C=CC(=O)N1CC[C@@H](Nc2ncnc3[nH]c(C#Cc4ccc5sccc5c4)cc23)C1 [Example 73, (R)-1-(3-((6-(benzo[b]thiophen-5-ylethynyl)-7H-pyrrolo[2,3-d]pyrimidin-4-yl)amino)pyrrolidin-1-yl)prop-2-en-1-one]	0.1	0.001
C=CC(=O)N1CC[C@@H](Nc2ncnc3[nH]c(C#Cc4ccc5occc5c4)cc23)C1 [Example 74, (R)-1-(3-((6-(benzofuran-5-ylethynyl)-7H-pyrrolo[2,3-d]pyrimidin-4-yl)amino)pyrrolidin-1-yl)prop-2-en-1-one]	0.03	0.0012
C=CC(=O)N1CC[C@@H](Nc2ncnc3[nH]c(C#Cc4cccs4)cc23)C1 [Example 75, (R)-1-(3-((6-(thiophen-2-ylethynyl)-7H-pyrrolo[2,3-d]pyrimidin-4-yl)amino)pyrrolidin-1-yl)prop-2-en-1-one]	30	0.0049
C=CC(=O)N1CC[C@@H](Nc2ncnc3[nH]c(C#Cc4ccsc4)cc23)C1 [Example 76, (R)-1-(3-((6-(thiophen-3-ylethynyl)-7H-pyrrolo[2,3-d]pyrimidin-4-yl)amino)pyrrolidin-1-yl)prop-2-en-1-one]	1	0.0032
C=CC(=O)N1CC[C@@H](Nc2ncnc3[nH]c(C#Cc4ccc5ncccc5c4)cc23)C1 [Example 77, (R)-1-(3-((6-(quinolin-6-ylethynyl)-7H-pyrrolo[2,3-d]pyrimidin-4-yl)amino)pyrrolidin-1-yl)prop-2-en-1-one]	145	0.526
C=CC(=O)N1CC[C@@H](Nc2ncnc3[nH]c(C#CC4CCCCC4)cc23)C1 [Example 78, (R)-1-(3-((6-(cyclohexylethynyl)-7H-pyrrolo[2,3-d]pyrimidin-4-yl)amino)pyrrolidin-1-yl)prop-2-en-1-one]	702	2.68
C=CC(=O)N1CC[C@@H](Nc2ncnc3[nH]c(C#Cc4ccoc4)cc23)C1 [Example 79, (R)-1-(3-((6-(furan-3-ylethynyl)-7H-pyrrolo[2,3-d]pyrimidin-4-yl)amino)pyrrolidin-1-yl)prop-2-en-1-one]	2	0.031
C=CC(=O)N1CC[C@@H](Nc2ncnc3[nH]c(C#Cc4cnn(C)c4)cc23)C1 [Example 80, (R)-1-(3-((6-((1-methyl-1H-pyrazol-4-yl)ethynyl)-7H-pyrrolo[2,3-d]pyrimidin-4-yl)amino)pyrrolidin-1-yl)prop-2-en-1-one]	255	0.51
